Experimental data taken from PubChem BioAssay (NCI).
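Five concentrations, 48 hours, 96-well plates. The concentration for 50% growth inhibition is given as GI50. Definition used: TGI = concentration required for complete inhibition of growth.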

Key:
Experiment in all cases: NCI tumour cell line growth inhibition, 48 h
786-0 renal = tested on: 786-0 renal
A498 renal = tested on: A498 renal
A549 NSCLC = tested on: A549 NSCLC
ACHN renal = tested on: ACHN renal
BT-549 breast = tested on: BT-549 breast
CAKI-1 renal = tested on: CAKI-1 renal
CCRF-CEM leukemia = tested on: CCRF-CEM leukemia
COLO 205 colon = tested on: COLO 205 colon
DU-145 prostate = tested on: DU-145 prostate
EKVX NSCLC = tested on: EKVX NSCLC
HCC-2998 colon = tested on: HCC-2998 colon
HCT-116 colon = tested on: HCT-116 colon
HCT-15 colon = tested on: HCT-15 colon
HL-60(TB) leukemia = tested on: HL-60(TB) leukemia
HOP-62 NSCLC = tested on: HOP-62 NSCLC
HOP-92 NSCLC = tested on: HOP-92 NSCLC
HS 578T breast = tested on: HS 578T breast
HT29 colon = tested on: HT29 colon
IGROV1 ovarian = tested on: IGROV1 ovarian
K-562 leukemia = tested on: K-562 leukemia
KM12 colon = tested on: KM12 colon
LOX IMVI melanoma = tested on: LOX IMVI melanoma
M14 melanoma = tested on: M14 melanoma
MCF7 breast = tested on: MCF7 breast
MDA-MB-231 breast = tested on: MDA-MB-231 breast
MDA-MB-435 = tested on: MDA-MB-435
MOLT-4 leukemia = tested on: MOLT-4 leukemia
NCI-H226 lung = tested on: NCI-H226 lung
NCI-H23 lung = tested on: NCI-H23 lung
NCI-H460 lung = tested on: NCI-H460 lung
NCI-H522 lung = tested on: NCI-H522 lung
NCI/ADR-RES ovarian = tested on: NCI/ADR-RES ovarian
OVCAR-3 ovarian = tested on: OVCAR-3 ovarian
OVCAR-4 ovarian = tested on: OVCAR-4 ovarian
OVCAR-5 ovarian = tested on: OVCAR-5 ovarian
OVCAR-8 ovarian = tested on: OVCAR-8 ovarian
PC-3 prostate = tested on: PC-3 prostate
RPMI-8226 leukemia = tested on: RPMI-8226 leukemia
RXF 393 renal = tested on: RXF 393 renal
SF-268 CNS = tested on: SF-268 CNS
SF-295 CNS = tested on: SF-295 CNS
SF-539 CNS = tested on: SF-539 CNS
SK-MEL-2 melanoma = tested on: SK-MEL-2 melanoma
SK-MEL-28 melanoma = tested on: SK-MEL-28 melanoma
SK-MEL-5 melanoma = tested on: SK-MEL-5 melanoma
SK-OV-3 ovarian = tested on: SK-OV-3 ovarian
SN12C renal = tested on: SN12C renal
SNB-19 CNS = tested on: SNB-19 CNS
SNB-75 CNS = tested on: SNB-75 CNS
SR leukemia = tested on: SR leukemia
SW-620 colon = tested on: SW-620 colon
T-47D breast = tested on: T-47D breast
TK-10 renal = tested on: TK-10 renal
U251 CNS = tested on: U251 CNS
UACC-257 melanoma = tested on: UACC-257 melanoma
UACC-62 melanoma = tested on: UACC-62 melanoma
UO-31 renal = tested on: UO-31 renal

COC(=O)[C@H]1[C@@H](O)[C@@]2(O)c3c(OC)cc(OC)cc3O[C@@]2(c2ccc(OC)cc2)[C@@H]1c1ccccc1
GI50 (786-0 renal): 45.1 nM
TGI (786-0 renal): 267 nM
GI50 (A498 renal): 10 nM
TGI (A498 renal): 48.5 nM
GI50 (A549 NSCLC): 8.57 nM
TGI (A549 NSCLC): 177 nM
GI50 (ACHN renal): 10.2 nM
TGI (ACHN renal): 166 nM
GI50 (BT-549 breast): 39.9 nM
TGI (BT-549 breast): 213 nM
GI50 (CAKI-1 renal): 28.5 nM
TGI (CAKI-1 renal): 2720 nM
GI50 (CCRF-CEM leukemia): 14.7 nM
TGI (CCRF-CEM leukemia): 5690 nM
GI50 (COLO 205 colon): 15.3 nM
TGI (COLO 205 colon): 52 nM
GI50 (DU-145 prostate): 17.3 nM
TGI (DU-145 prostate): 207 nM
GI50 (EKVX NSCLC): 20.6 nM
TGI (EKVX NSCLC): 360 nM
GI50 (HCC-2998 colon): 8.33 nM
TGI (HCC-2998 colon): 205 nM
GI50 (HCT-116 colon): 10.2 nM
TGI (HCT-116 colon): 179 nM
GI50 (HCT-15 colon): 10.9 nM
TGI (HCT-15 colon): 447 nM
GI50 (HL-60(TB) leukemia): 18.3 nM
TGI (HL-60(TB) leukemia): 108 nM
GI50 (HOP-62 NSCLC): 11.8 nM
TGI (HOP-62 NSCLC): 101 nM
GI50 (HOP-92 NSCLC): 48 nM
TGI (HOP-92 NSCLC): 3890 nM
GI50 (HS 578T breast): 44.2 nM
TGI (HS 578T breast): 1280 nM
GI50 (HT29 colon): 7.13 nM
TGI (HT29 colon): 93.5 nM
GI50 (IGROV1 ovarian): 20.7 nM
TGI (IGROV1 ovarian): 1340 nM
GI50 (K-562 leukemia): 9.61 nM
TGI (K-562 leukemia): 6820 nM
GI50 (KM12 colon): < 10.5 nM
TGI (KM12 colon): 757 nM
GI50 (LOX IMVI melanoma): 11.5 nM
TGI (LOX IMVI melanoma): 75.9 nM
GI50 (M14 melanoma): 11.9 nM
TGI (M14 melanoma): 52.2 nM
GI50 (MCF7 breast): 6.7 nM
TGI (MCF7 breast): 231 nM
GI50 (MDA-MB-231 breast): 32.8 nM
TGI (MDA-MB-231 breast): 132 nM
GI50 (MDA-MB-435): 12.1 nM
TGI (MDA-MB-435): 626 nM
GI50 (MOLT-4 leukemia): 6.22 nM
TGI (MOLT-4 leukemia): 488 nM
GI50 (NCI-H226 lung): 11.8 nM
TGI (NCI-H226 lung): 260 nM
GI50 (NCI-H23 lung): 15.5 nM
TGI (NCI-H23 lung): 146 nM
GI50 (NCI-H460 lung): 5.37 nM
TGI (NCI-H460 lung): 653 nM
GI50 (NCI-H522 lung): 17 nM
TGI (NCI-H522 lung): 106 nM
GI50 (NCI/ADR-RES ovarian): 19.8 nM
TGI (NCI/ADR-RES ovarian): 101 nM
GI50 (OVCAR-3 ovarian): 22.3 nM
TGI (OVCAR-3 ovarian): 304 nM
GI50 (OVCAR-4 ovarian): 26.6 nM
TGI (OVCAR-4 ovarian): 659 nM
GI50 (OVCAR-5 ovarian): 40.3 nM
TGI (OVCAR-5 ovarian): 1030 nM
GI50 (OVCAR-8 ovarian): 32.7 nM
TGI (OVCAR-8 ovarian): 408 nM
GI50 (PC-3 prostate): 18.6 nM
TGI (PC-3 prostate): 6250 nM
GI50 (RPMI-8226 leukemia): 19.2 nM
TGI (RPMI-8226 leukemia): 339 nM
GI50 (RXF 393 renal): 10.5 nM
TGI (RXF 393 renal): 78.2 nM
GI50 (SF-268 CNS): 25.6 nM
TGI (SF-268 CNS): 492 nM
GI50 (SF-295 CNS): 14.1 nM
TGI (SF-295 CNS): 126 nM
GI50 (SF-539 CNS): 7.9 nM
TGI (SF-539 CNS): 72 nM
GI50 (SK-MEL-2 melanoma): 29.2 nM
TGI (SK-MEL-2 melanoma): 89.6 nM
GI50 (SK-MEL-28 melanoma): 26.1 nM
TGI (SK-MEL-28 melanoma): 277 nM
GI50 (SK-MEL-5 melanoma): 18.2 nM
TGI (SK-MEL-5 melanoma): 81.4 nM
GI50 (SK-OV-3 ovarian): 11.9 nM
TGI (SK-OV-3 ovarian): 231 nM
GI50 (SN12C renal): 19 nM
TGI (SN12C renal): 214 nM
GI50 (SNB-19 CNS): 16.2 nM
TGI (SNB-19 CNS): 716 nM
GI50 (SNB-75 CNS): 42.9 nM
TGI (SNB-75 CNS): 1250 nM
GI50 (SR leukemia): 14.2 nM
TGI (SR leukemia): 16700 nM
GI50 (SW-620 colon): 9.12 nM
TGI (SW-620 colon): 2320 nM
GI50 (T-47D breast): 7.22 nM
TGI (T-47D breast): 103 nM
GI50 (TK-10 renal): 45.5 nM
TGI (TK-10 renal): 166 nM
GI50 (U251 CNS): 23.8 nM
TGI (U251 CNS): 749 nM
GI50 (UACC-257 melanoma): 44.8 nM
TGI (UACC-257 melanoma): 143 nM
GI50 (UACC-62 melanoma): 38.3 nM
TGI (UACC-62 melanoma): 569 nM
GI50 (UO-31 renal): < 17.2 nM
TGI (UO-31 renal): 129 nM
